Activity calls are given as the source filed them. The rule behind the calls is not given here.
Target: Low molecular weight phosphotyrosine protein phosphatase (Homo sapiens) (UniProt P24666)
Assay: LMPTP phosphatase inhibitors, dose response, orthogonal assay, biochemical, absorbance (AID 652005)
Details: recombinant LMPTP, absorbance-based phosphatase activity

Chain of Low molecular weight phosphotyrosine protein phosphatase (Homo sapiens) (P24666 whole entry, looked up): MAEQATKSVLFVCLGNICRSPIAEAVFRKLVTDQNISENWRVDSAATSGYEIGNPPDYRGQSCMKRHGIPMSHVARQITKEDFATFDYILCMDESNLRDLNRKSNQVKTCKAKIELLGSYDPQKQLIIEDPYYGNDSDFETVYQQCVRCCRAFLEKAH

| Structure (SMILES) | IC50 |
| --- | --- |
| O=c1[nH]c2ccccc2n1C1CCN(Cc2ccc(-c3[nH]c4cc5ncnc5cc4nc3-c3ccccc3)cc2)CC1 | > 80 µM (inactive) |
| CCN(c1ccccc1)S(=O)(=O)c1cc(C(=O)O)ccc1C | inactive |
| O=C(/C=C/c1ccc(Cl)cc1)NC(=S)Nc1ccc(C(=O)O)cc1 | 15 µM |
| O=C(N=Nc1c(O)[nH]c2ccc(F)cc12)c1ccc(NS(=O)(=O)c2cccs2)cc1 | > 80 µM (inactive) |

Now from value to compound:

| IC50 | Structure (SMILES) |
| --- | --- |
| > 80 µM (inactive) | CC(C1SC(=S)NC1=O)C1SC(=S)NC1=O (stereo not drawn) |
| > 80 µM (inactive) | Cc1csc2nc(O)c(C(=O)NCc3ccc4c(c3)OCO4)c(=O)n12 |
| > 80 µM (inactive) | O=C(NCc1ccc2c(c1)OCO2)c1c(O)nc2sccn2c1=O |
| > 80 µM (inactive) | CCc1ccc(C=C2SC(=S)N(CCCC(=O)Nc3ccc(C(=O)O)cc3)C2=O)cc1 |
